# Data published in US20230203059A1, “MACROCYCLIC JAK INHIBITOR AND USES THEREOF” (Biopolar Hongye (Guangdong) Pharmaceutical Co. Ltd., priority 2020, published 2023).
# Experiments:
# Type in all cases: biochemical
# [1] = target: TYK2 (Homo sapiens, UniProt P29597); test: JAK kinase activity, homogeneous time-resolved fluorescence (TYK2 reaction system); settings: ATP 2 μM, TYK2 protein 0.2 ng/μL; read-out: TYK 2 activity
# How it was run: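 Activity read as the 665 nm/615 nm ratio after adding EDTA-containing detection mix with anti-phospho-substrate antibody and XL-615. Beforehand, 0.2 ng/μL TYK2, 2 μM ATP, substrate and compound reacted 1 h in pH 7.0 Hepes buffer with MgCl2 and DTT. IC50 fitted with Hill-slope equation.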
# [2] = target: JAK1 (Homo sapiens, UniProt P23458); test: JAK kinase activity, homogeneous time-resolved fluorescence (JAK1 reaction system); settings: ATP 2 μM, JAK1 protein 0.2 ng/μL; read-out: JAK 1 activity
# Chain of JAK1 (P23458 whole entry): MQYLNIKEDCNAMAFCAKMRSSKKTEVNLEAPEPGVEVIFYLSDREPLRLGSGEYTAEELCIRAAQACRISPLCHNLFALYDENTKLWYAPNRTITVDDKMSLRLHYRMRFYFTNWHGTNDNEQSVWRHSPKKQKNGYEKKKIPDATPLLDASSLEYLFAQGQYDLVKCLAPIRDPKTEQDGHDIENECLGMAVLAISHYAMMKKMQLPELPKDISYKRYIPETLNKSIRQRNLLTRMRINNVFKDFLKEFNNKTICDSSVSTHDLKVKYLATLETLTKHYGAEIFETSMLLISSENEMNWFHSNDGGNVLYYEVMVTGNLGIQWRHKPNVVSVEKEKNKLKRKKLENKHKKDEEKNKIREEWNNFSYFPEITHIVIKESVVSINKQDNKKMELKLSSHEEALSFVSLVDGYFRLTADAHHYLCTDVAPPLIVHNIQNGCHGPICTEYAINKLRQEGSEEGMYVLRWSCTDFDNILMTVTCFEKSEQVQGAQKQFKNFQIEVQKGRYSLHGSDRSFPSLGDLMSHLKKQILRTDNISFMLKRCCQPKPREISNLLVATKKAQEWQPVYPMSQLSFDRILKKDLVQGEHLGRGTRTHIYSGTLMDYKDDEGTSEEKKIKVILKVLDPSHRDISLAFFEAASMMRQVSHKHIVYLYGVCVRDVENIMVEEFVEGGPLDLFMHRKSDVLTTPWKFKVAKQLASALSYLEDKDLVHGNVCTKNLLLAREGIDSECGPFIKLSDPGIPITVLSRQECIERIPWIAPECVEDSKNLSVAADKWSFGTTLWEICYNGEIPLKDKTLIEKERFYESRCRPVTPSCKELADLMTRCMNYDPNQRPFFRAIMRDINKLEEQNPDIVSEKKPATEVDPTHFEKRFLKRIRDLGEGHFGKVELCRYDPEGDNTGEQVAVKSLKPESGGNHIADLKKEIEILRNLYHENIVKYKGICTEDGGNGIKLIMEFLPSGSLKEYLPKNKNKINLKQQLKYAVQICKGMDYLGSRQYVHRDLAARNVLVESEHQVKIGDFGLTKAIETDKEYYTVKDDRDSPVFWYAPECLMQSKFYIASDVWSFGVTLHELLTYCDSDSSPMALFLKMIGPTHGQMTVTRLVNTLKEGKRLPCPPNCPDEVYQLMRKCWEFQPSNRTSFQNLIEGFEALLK
# How it was run: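 HTRF assay: JAK1 (0.2 ng/μL) with 2 μM ATP and substrate in 50 mM Hepes pH 7.0, 5 mM MgCl2, 1 mM DTT, 1 h. Phospho-substrate antibody/XL-615 detection with EDTA; 665/615 nm ratio, excitation 320 nm. IC50 from Hill-type fit against no-enzyme and no-compound controls.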
# [3] = target: JAK2 (Homo sapiens, UniProt O60674); test: JAK kinase activity, homogeneous time-resolved fluorescence (JAK2 reaction system); settings: ATP 2 μM, JAK2 protein 0.01 ng/μL
# Chain of JAK2 (O60674 whole entry): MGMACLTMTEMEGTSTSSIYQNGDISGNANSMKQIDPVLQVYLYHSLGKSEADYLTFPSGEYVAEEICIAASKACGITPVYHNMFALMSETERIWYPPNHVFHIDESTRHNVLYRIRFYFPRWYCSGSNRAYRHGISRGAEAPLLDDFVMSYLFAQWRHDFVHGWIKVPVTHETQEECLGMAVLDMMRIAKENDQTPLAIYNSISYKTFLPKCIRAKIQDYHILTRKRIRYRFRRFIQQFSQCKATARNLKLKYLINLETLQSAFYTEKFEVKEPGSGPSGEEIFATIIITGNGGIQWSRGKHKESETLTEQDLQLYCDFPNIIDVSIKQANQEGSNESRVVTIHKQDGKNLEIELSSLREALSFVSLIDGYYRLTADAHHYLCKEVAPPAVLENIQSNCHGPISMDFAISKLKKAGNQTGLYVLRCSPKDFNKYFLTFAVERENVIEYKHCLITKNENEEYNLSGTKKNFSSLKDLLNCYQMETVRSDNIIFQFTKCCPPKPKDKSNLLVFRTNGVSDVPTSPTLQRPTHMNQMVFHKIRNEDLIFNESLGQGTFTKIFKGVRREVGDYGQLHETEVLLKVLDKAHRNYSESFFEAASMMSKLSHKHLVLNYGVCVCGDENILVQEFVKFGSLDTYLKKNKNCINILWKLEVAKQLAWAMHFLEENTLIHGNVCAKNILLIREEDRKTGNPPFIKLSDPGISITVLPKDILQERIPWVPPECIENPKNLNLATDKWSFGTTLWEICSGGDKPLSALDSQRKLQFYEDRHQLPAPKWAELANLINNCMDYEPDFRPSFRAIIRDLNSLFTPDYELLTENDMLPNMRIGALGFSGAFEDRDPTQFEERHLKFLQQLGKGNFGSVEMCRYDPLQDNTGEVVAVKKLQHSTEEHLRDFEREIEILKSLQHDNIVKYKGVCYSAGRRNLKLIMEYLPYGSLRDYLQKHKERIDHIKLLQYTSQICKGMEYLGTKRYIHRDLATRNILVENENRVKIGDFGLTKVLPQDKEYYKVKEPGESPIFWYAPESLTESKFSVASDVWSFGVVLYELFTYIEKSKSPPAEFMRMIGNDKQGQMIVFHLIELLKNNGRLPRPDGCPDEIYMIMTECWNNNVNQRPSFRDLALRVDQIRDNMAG
# How it was run: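 IC50 derived by Hill-equation fit of the 665/615 nm time-resolved fluorescence ratio after EDTA-containing detection mix with anti-phosphosubstrate antibody. Preceding 1 h reaction contained 2 μM ATP, 0.01 ng/μL JAK2, substrate, 50 mM Hepes pH 7.0, 5 mM MgCl2, 1 mM DTT.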
# [4] = target: T1, JAK3 (Homo sapiens, UniProt P52333); test: JAK kinase activity, homogeneous time-resolved fluorescence (JAK3 reaction system); settings: ATP 2 μM, JAK3 protein 0.04 ng/μL; read-out: JAK 3 activity
# T1 sequence (P52333 1-1124): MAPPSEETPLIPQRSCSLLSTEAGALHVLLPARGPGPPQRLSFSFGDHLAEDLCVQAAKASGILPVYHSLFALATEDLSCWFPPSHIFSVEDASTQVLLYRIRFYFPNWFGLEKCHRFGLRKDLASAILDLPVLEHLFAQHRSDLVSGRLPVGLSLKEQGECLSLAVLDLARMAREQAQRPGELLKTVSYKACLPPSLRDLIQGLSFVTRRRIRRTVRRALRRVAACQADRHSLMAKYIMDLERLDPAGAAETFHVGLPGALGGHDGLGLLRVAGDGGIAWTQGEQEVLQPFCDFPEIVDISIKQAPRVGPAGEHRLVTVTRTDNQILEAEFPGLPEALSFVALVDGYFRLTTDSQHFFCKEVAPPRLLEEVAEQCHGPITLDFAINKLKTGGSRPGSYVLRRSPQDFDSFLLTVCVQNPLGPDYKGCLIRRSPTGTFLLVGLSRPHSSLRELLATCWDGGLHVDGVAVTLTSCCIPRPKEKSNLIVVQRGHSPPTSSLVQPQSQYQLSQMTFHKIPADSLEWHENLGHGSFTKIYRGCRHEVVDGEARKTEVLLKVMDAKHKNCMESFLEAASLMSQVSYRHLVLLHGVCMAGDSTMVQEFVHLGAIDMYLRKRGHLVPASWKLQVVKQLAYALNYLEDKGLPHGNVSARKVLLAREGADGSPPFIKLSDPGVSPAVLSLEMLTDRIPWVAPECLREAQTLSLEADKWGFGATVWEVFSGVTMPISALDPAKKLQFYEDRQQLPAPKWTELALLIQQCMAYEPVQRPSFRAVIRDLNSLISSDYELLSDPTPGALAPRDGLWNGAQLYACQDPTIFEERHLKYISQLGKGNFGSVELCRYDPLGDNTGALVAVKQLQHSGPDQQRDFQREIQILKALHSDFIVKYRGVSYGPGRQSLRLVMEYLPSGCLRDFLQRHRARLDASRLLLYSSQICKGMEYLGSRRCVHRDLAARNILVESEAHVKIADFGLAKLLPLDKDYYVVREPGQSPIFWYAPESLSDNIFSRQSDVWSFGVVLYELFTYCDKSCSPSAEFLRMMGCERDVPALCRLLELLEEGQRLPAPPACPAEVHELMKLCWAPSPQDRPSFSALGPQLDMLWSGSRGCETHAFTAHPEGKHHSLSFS
# Chain of TYK2 (P29597 whole entry): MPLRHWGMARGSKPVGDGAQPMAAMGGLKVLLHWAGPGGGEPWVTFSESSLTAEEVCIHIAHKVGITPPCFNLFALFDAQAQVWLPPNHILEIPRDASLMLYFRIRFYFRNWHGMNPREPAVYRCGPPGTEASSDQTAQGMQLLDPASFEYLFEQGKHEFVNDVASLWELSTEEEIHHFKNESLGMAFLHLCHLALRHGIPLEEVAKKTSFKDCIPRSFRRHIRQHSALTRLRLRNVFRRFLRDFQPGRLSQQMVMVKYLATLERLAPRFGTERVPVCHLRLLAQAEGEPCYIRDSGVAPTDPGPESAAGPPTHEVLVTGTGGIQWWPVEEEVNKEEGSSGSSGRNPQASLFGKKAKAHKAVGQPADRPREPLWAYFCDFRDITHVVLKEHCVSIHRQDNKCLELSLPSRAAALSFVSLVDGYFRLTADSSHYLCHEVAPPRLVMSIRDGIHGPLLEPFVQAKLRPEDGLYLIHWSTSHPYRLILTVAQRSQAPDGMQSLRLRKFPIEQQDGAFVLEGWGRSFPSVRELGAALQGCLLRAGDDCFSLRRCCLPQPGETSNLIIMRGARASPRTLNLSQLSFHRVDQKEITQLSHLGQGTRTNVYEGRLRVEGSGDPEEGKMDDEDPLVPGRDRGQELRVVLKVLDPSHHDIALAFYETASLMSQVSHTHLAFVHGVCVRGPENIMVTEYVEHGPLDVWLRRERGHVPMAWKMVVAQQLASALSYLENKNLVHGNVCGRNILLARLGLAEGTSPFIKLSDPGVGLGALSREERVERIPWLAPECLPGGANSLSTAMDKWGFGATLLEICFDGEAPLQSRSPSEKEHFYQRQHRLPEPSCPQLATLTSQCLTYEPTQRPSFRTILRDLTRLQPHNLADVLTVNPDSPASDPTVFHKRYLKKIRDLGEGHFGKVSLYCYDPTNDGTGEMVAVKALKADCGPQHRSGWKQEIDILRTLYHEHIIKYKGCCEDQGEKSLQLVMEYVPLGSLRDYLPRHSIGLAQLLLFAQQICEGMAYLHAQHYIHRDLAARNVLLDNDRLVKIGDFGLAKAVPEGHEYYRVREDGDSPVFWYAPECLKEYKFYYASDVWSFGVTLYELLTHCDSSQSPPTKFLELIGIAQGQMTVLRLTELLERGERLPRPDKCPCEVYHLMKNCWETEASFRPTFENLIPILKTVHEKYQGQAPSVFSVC
IC50 [1] [µM],IC50 [2] [µM],IC50 [3] [µM],IC50 [4] [µM],Structure (SMILES)
> 10,> 10,1 to 10,0.101 to 1,"O=C1NCCCCOCc2cc(ccc2OCC2CCCC2)Nc2nccc(n2)-c2ccc1cc2[N+](=O)[O-] [Example 104, 4^4-(cyclopentylmethoxy)-1^2-nitro-6-oxa-3,11-diaza-2(4,2)-pyrimidina-1(1,4),4(1,3)-dibenzenacyclodo-decaphan-12-one]"
1 to 10,0.011 to 0.1,0.011 to 0.1,0.011 to 0.1,"O=C1NCCCCOCc2cc(cc(N3CCOCC3)c2)Nc2ncc(Cl)c(n2)-c2ccc1cc2 [Example 16, 2^5-chloro-4^5-morpholin-6-oxa-3,11-diaza-2(4,2)-pyrimidina-1(1,4),4(1,3)-dibenzenacyclododecaphan-12-one]"
> 10,1 to 10,1 to 10,0.101 to 1,"Cc1cc2ccc1-c1ccnc(n1)Nc1cccc(c1)COCCCCNC2=O [Example 40, 1^2-methyl-6-oxa-3,11-diaza-2(4,2)-pyrimidina-1(1,4),4(1,3)-diben-zenacyclododecaphan-12-one]"
1 to 10,1 to 10,0.101 to 1,0.011 to 0.1,"CC(C)Oc1ccc2cc1COc1ccc(cc1)NC(=O)c1ccc(c(N)c1)-c1ccnc(n1)N2 [Example 198, 1^2-amino-4^4-isopropoxy-6-oxa-3,8-diaza-2(4,2)-pyrimidina-1,7(1,4),4(1,3)-tribenzenacyclononaphane-9-one]"
> 10,1 to 10,1 to 10,1 to 10,"O=C1NCCCCOCc2cc(ccc2N2CCOCC2)Nc2nccc(n2)-c2ccc1cc2C(F)(F)F [Example 19, 4^4-morpholin-1^2-trifluoromethyl-6-oxa-3,11-diaza-2(4,2)-pyrimi-dina-1(1,4),4(1,3)-dibenzenacyclododecaphan-12-one]"
1 to 10,1 to 10,1 to 10,0.011 to 0.1,"Nc1cc2ccc1-c1ccnc(n1)Nc1ccc(OCC3CCc4ccccc43)c(c1)COCCCCNC2=O (stereo not drawn) [Example 134, 1^2-amino-4^4-((2,3-dihydro-1H-inden-1-yl)methoxy)-6-oxa-3,11-diaza-2(4,2)-pyrimidina-1(1,4),4(1,3)-dibenzenacyclododecaphan-12-one]"
1 to 10,1 to 10,0.101 to 1,< 0.01,"Nc1cc2ccc1-c1ccnc(n1)Nc1ccc(OCC3CC(F)(F)C3)c(c1)COCCCCNC2=O [Example 127, 1^2-Amino-4^4-((3,3-difluorocyclo-butyl)methoxy)-6-oxa-3,11-diaza-2(4,2)-pyrimidina-1(1,4),4(1,3)-di-benzenacyclododecaphan-12-one]"
0.101 to 1,0.101 to 1,0.011 to 0.1,0.011 to 0.1,"Nc1cc2ccc1-c1ccnc(n1)Nc1cc(cc(N3CCSCC3)c1)COCCCCNC2=O [Example 77, 1^2-amino-4^5-thiomorpholin-6-oxa-3,11-diaza-2(4,2)-pyrimidina-1(1,4),4(1,3)-dibenzenacyclododecaphan-12-one]"
1 to 10,0.101 to 1,0.101 to 1,< 0.01,"CC(C)Oc1ccc2cc1COCCCCNC(=O)c1ccc(c(N)c1)-c1ccnc(n1)N2 [Example 67, 1^2-amino-4^4-isopropoxy-6-oxa-3,11-diaza-2(4,2)-pyrimidina-1(1,4),4(1,3)-dibenzenacyclododecaphan-12-one]"
> 10,1 to 10,0.101 to 1,0.011 to 0.1,"COc1ccccc1COc1ccc2cc1COCCCCNC(=O)c1ccc(c(N)c1)-c1ccnc(n1)N2 [Example 156, 1^2-amino-4^4-((2-methoxybenzyl)oxy)-6-oxa-3,11-diaza-2(4,2)-pyri-midina-1(1,4),4(1,3)-dibenzena-cyclododecaphan-12-one]"
0.101 to 1,0.101 to 1,0.011 to 0.1,< 0.01,"C[C@@H]1CCOCc2cc(ccc2OC2CC2)Nc2nccc(n2)-c2ccc(cc2N)C(=O)NC1 [Example 181, (R)-1^2-amino-4^4-cyclopropxy-9-methyl-6-ox-3,11-diaza-2 (4,2)-pyrimidina-1(1,4),4(1,3)-di-benzenacyclododecaphan-12-one]"
1 to 10,1 to 10,1 to 10,0.011 to 0.1,"Nc1cc2ccc1-c1ccnc(n1)Nc1ccc(OCC3Cc4ccccc4C3)c(c1)COCCCCNC2=O [Example 123, 1^2-amino-4^4-((2,3-dihydro-1H-inden-2-yl)methoxy)-6-oxa-3,11-diaza-2(4,2)-pyrimidina-1(1,4),4(1,3)-dibenzenacyclododecaphan-12-one]"
> 10,1 to 10,0.101 to 1,< 0.01,"O=C1Nc2ccc(cc2)OCc2cc(ccc2OCC2CC2)Nc2nccc(n2)-c2ccc1cc2[N+](=O)[O-] [Example 206, 4^4-(cyclopropylmethoxy)-1-nitro-6-oxa-3,8-diaza-2(4,2)-pyrimidina-1,7(1,4),4(1,3)-tribenzenacyclo-nonaphane-9-one]"
> 10,1 to 10,> 10,1 to 10,"O=C1NCCCCOCc2cccc(c2)Nc2nccc(n2)-c2ccc1cc2[N+](=O)[O-] [Example 53, 1^2-nitro-6-oxa-3,11-diaza-2(4,2)-py-rimidina-1(1,4),4(1,3)-dibenzenacyclo-dodecaphan-12-one]"
> 10,> 10,> 10,0.101 to 1,"Nc1cc2ccc1-c1ccnc(n1)Nc1ccc(F)c(c1)COc1ccc(cc1)NC2=O [Example 91, 1^2-amino-4^4-fluoro-6-oxa-3,8-diaza-2(4,2)-pyrimidina-1,7(1,4),4(1,3)-tri-benzenacyclononaphane-9-one]"
> 10,> 10,1 to 10,1 to 10,"O=C1NCCCCOCc2cc(ccc2Oc2cccc(F)c2)Nc2nccc(n2)-c2ccc1cc2[N+](=O)[O-] [Example 101, 4^4-(3-fluorophenoxy)-1^2-nitro-6-oxa-3,11-diaza-2(4,2)-pyrimidina-(1,4),4(1,3)-dibenzenacyclododeca-phan-12-one]"
> 10,1 to 10,1 to 10,0.101 to 1,"CN(C)C(=O)C(C)(C)Oc1ccc2cc1COCCCCNC(=O)c1ccc(c(N)c1)-c1ccnc(n1)N2 [Example 179, 2-((1^2-amino-12-oxo-6-oxa-3,11-di-aza-2(4,2)-pyrimidina-1(1,4),4(1,3)-dibenzenacyclododecaphan-4^4-yl)oxy)-N,N-trimethylpropoiona-mide]"
> 10,1 to 10,1 to 10,0.011 to 0.1,"Nc1cc2ccc1-c1ccnc(n1)Nc1ccc(Oc3ccccc3)c(c1)COCCCCNC2=O [Example 96, 1^2-amino-4^4-phenoxy-6-oxa-3,11-diaza-2(4,2)-pyrimidin-1(1,4),4(1,3)-dibenzenacyclododecaphan-12-one]"
